The NIST ThermoML archive (doi:10.1007/s10765-010-0725-9)
Where “and” joins values, the source holds several entries; their conditions need not be identical. Equal entries are not always repeated. ± gives the expanded uncertainty stated by the source.

Key:
[1] = Pendant drop shape
[2] = wn = mass fraction of the nth substance listed; conditions: Pendant drop shape

O [water]
[1]
Conditions | surface tension liquid-gas
303.15 K | 71.54 ± 0.82 mN/m and 72.12 ± 0.82 mN/m and 71.58 ± 0.82 mN/m
313.15 K | 70.64 ± 0.81 mN/m and 68.96 ± 0.79 mN/m and 69.86 ± 0.8 mN/m
323.15 K | 69.15 ± 0.79 mN/m and 67.83 ± 0.78 mN/m and 67.57 ± 0.78 mN/m
333.15 K | 66.16 ± 0.76 mN/m and 66.39 ± 0.76 mN/m
343.15 K | 65.39 ± 0.75 mN/m and 65.8 ± 0.8 mN/m and 64.73 ± 0.75 mN/m

O=S(=O)([O-])[O-].[Na+].[Na+] [sodium sulfate] + O
surface tension liquid-gas [mN/m], [2]
Conditions | 303.15 K | 313.15 K | 323.15 K | 333.15 K
w1 = 0.04 | 71.53 ± 0.8 | 70.7 ± 0.8 | 68.8 ± 0.78 | 67.27 ± 0.76
w1 = 0.1 | 73.56 ± 0.83 | 71.88 ± 0.81 | 70.5 ± 0.79 | 69.11 ± 0.78
w1 = 0.14 | 74.02 ± 0.83 | 72.82 ± 0.82 | 71.65 ± 0.81 | 69.93 ± 0.79
w1 = 0.18 | 76.28 ± 0.86 | 74.97 ± 0.84 | 73.22 ± 0.83 | 71.4 ± 0.81

[Cl-].[K+] [potassium chloride] + O
surface tension liquid-gas [mN/m], [2]
Conditions | 303.15 K | 313.15 K | 323.15 K | 333.15 K
w1 = 0.1 | 71.58 ± 1 | 69.86 ± 1 | 67.57 ± 0.98 | 66.39 ± 0.96
w1 = 0.14 | 72.12 ± 1.1 | 70.64 ± 1 | 69.15 ± 1 | 66.16 ± 0.96
w1 = 0.18 | 76.78 ± 1.1 | 75.23 ± 1.1 | 74.65 ± 1.1 | 71.44 ± 1

[Cl-].[Na+] [sodium chloride] + O
surface tension liquid-gas [mN/m], [2]
Conditions | 303.15 K | 313.15 K | 323.15 K | 333.15 K
w1 = 0.04 | 71.44 ± 1.2 | 70.66 ± 1.2 | 68.25 ± 1.2 | 67.31 ± 1.2
w1 = 0.1 | 73.42 ± 1.3 | 71.81 ± 1.2 | 70.97 ± 1.2 | 69.74 ± 1.2
w1 = 0.14 | 76.09 ± 1.3 | 74.6 ± 1.3 | 72.47 ± 1.3 | 71.83 ± 1.2
w1 = 0.18 | 77.04 ± 1.3 | 74.73 ± 1.3 | 73.38 ± 1.3 | 71.44 ± 1.2

[Ca+2].[Cl-].[Cl-] [calcium chloride] + O
surface tension liquid-gas [mN/m], [2]
Conditions | 303.15 K | 313.15 K | 323.15 K | 333.15 K
w1 = 0.04 | 72.74 ± 0.9 | 70.84 ± 0.88 | 69.62 ± 0.87 | 67.62 ± 0.84
w1 = 0.1 | 74.59 ± 0.93 | 72.56 ± 0.9 | 70.38 ± 0.88 | 68.56 ± 0.85
w1 = 0.14 | 76.08 ± 0.94 | 73.65 ± 0.92 | 71.52 ± 0.89 | 70.63 ± 0.88
w1 = 0.18 | 77.53 ± 0.96 | 74.89 ± 0.93 | 73.25 ± 0.91 | 71.87 ± 0.9
